# “Also recorded” adds a separate entry of the source.
# How the values were obtained:
# [1] = tested on: pinacidil induced DMR signal in HepG2C3A cells; assay: Label-free RWG biosensor DMR assay, modulation of the pinacidil induced DMR signal; type: cell-based, human; conditions: pre-incubation with compound, pinacidil 40 μM
# Experimental: Transfection of siRNAs was performed using N-TER Nanoparticle siRNA Transfection System (Cat#N2913) from Sigma-Aldrich Inc. following the manufacturer's instructions. Briefly, 5000 cells were plated in each well of Epic 384-well plates. Cells were transfected with 50 nM siRNA the next day and incubated in siRNA containing medium for 24 hrs before replaced with fresh cell culture medium. Epic cell assay was performed 48 hours after transfection.
# (§1) Epic® wavelength interrogation system (Corning Inc., Corning, N.Y.) was used for whole cell sensing. This system consists of a temperature-control unit, an optical detection unit, and an on-board liquid handling unit with robotics. The detection unit is centered on integrated fiber optics, and enables kinetic measures of cellular responses with a time interval of ˜15sec. The compound solutions were introduced by using the on-board liquid handling unit (i.e., pippetting).
# The RWG biosensor is capable of detecting minute changes in local index of refraction near the sensor surface. Since the local index of refraction within a cell is a function of density and its distribution of biomass (e.g., proteins, molecular complexes), the biosensor exploits its evanescent wave to non-invasively detect ligand-induced dynamic mass redistribution in native cells. The evanescent wave extends into the cells and exponentially decays over distance, leading to a characteristic sensing volume of ˜150 nm, implying that any optical response mediated through the receptor activation only represents an average over the portion of the cell that the evanescent wave is sampling. The aggregation of many cellular events downstream the receptor activation determines the kinetics and amplitudes of a ligand-induced DMR.
# For biosensor cellular assays, compound solutions were made by diluting the stored concentrated solutions with the HBSS (1× Hanks balanced salt solution, plus 20 mM Hepes, pH 7.1), and transferred into a 384well polypropylene compound storage plate to prepare a compound source plate. Two compound source plates were made separately when a two-step assay was performed. In parallel, the cells were washed twice with the HBSS and maintained in 30 μl of the HBSS to prepare a cell assay plate. Both the cell assay plate and the compound source plate(s) were then incubated in the hotel of the reader system. After incubation the baseline wavelengths of all biosensors in the cell assay microplate were recorded and normalized to zero. Afterwards, a 2 to 10 min continuous recording was carried out to establish a baseline, and to ensure that the cells reached a steady state. Cellular responses were then triggered by transferring 10 μl of the compound solutions into the cell assay plate using the on-board liquid handler.
# All studies were carried out under controlled temperature (28° C.). At least two independent sets of experiments, each with at least three replicates, were performed.
# [2] = tested on: mito-KATP channels in HepG2C3A cells; assay: Label-free RWG biosensor (Epic) DMR cellular assay, agonism mode; type: cell-based, human; conditions: 28° C.
# Text: as §1
# The RWG biosensor is capable of detecting minute changes in local index of refraction near the sensor surface. Since the local index of refraction within a cell is a function of density and its distribution of biomass (e.g., proteins, molecular complexes), the biosensor exploits its evanescent wave to non-invasively detect ligand-induced dynamic mass redistribution in native cells. […]
# For biosensor cellular assays, compound solutions were made by diluting the stored concentrated solutions with the HBSS (1× Hanks balanced salt solution, plus 20 mM Hepes, pH 7.1), and transferred into a 384well polypropylene compound storage plate to prepare a compound source plate. […] Both the cell assay plate and the compound source plate(s) were then incubated in the hotel of the reader system. After incubation the baseline wavelengths of all biosensors in the cell assay microplate were recorded and normalized to zero. […]
Structure (SMILES),effect on the pinacidil induced DMR signal [1],pinacidil induced DMR signal (amplitudes and kinetics) [2]
C1CCC(N=C(NC23CC4CC(CC(C4)C2)C3)N2CCOCC2)CC1.Cl [U-37883A],no effect,
Cc1ccc(S(=O)(=O)NC(=O)NN2CCCCCC2)cc1 [tolazamide],dose-dependent inhibition; also recorded: dose-dependently inhibited,
C/C1=C/C(=O)O[C@@H]2C[C@@H](CC[C@H](C)/C=C\C=C\CC1)O[C@@](O)([C@@H]1CSC(=O)N1)C2 [latrunculin A],dose-dependently reduce,
CCCCNC(=O)NS(=O)(=O)c1ccc(C)cc1 [tobutamide],dose-dependently inhibited,
N#C/C(=C/c1ccc(O)c(O)c1)C(=O)NCc1ccccc1 [AG490],dose-dependently reduced,
C[C@@H](N)[C@H]1CC[C@H](C(=O)Nc2ccncc2)CC1 [Y-27632],reduced the pinacidil induced DMR signal dose-dependently,
CC(N/C(=N\C#N)Nc1ccncc1)C(C)(C)C (centres unmarked) [pinacidil],,robust; also recorded: concentration dependent
C=C1[C@@H](C)[C@H]2[C@H](Cc3ccccc3)NC(=O)[C@]23OC(=O)/C=C/[C@H](O)CCC[C@@H](C)C/C=C/[C@H]3[C@@H]1O [cytochalasin B],dose-dependently reduce,

# From patent US20110246078A1, “MITOCHONDRIA KATP ION CHANNEL AS A DRUG TARGET FOR PREVENTING LIVER DISEASES AND METHODS TO SCREEN MITOCHONDRIA KATP MODULATORS” (priority 2010, published 2011)
